Source: publication PMC11674118, “New High-Affinity Peptide Ligands for Kv1.2 Channel: Selective Blockers and Fluorescent Probes” (Cells, 2024)
Like-named read-outs stand apart in the source and are kept apart here. Where a SMILES comes first, the peptide text is derived from it. Bridges are numbered along the chain shown (N, C = ends).

Assays:
[1] = test system: K-Kv1.2 channel; experiment: Whole-cell patch-clamp of Neuro2a cells transfected with K-Kv1.2; type: cell-based, human; details: for block of current through K-Kv1.2: 10 nM peptide, whole-cell, representative traces (Figure 8d-g)
Protocol: The patch-clamp method (whole-cell configuration) was used to measure membrane ion currents as described earlier. All the measurements were carried out at room temperature in a buffer containing (mM) 140 NaCl, 2.8 KCl, 2 MgCl2, 2 CaCl2, 10 HEPES, and 10 glucose (pH 7.4). Resistance of the micropipette tip was 6–8 MΩ. The pipette solution contained (mM) 140 KCl, 6 CaCl2, 2 MgCl2, 2 MgATP, 0.4 NaGTP, 10 HEPES, and 20 BAPTA/KOH (pH 7.3). The holding potential was −40 mV. The membrane potential increased from −70 to +70 mV with the 20 mV step each 20 s and returned to −40 mV. The duration of voltage pulses was 200 ms.
Measurements were carried out in 24–48 h after transfection of cells. HgTx1 (2 nM), HgTx-G (7.5 nM), Ce1 (10 nM), and Ce4 (10 nM) were dissolved in the extracellular buffer.

[2] = test system: Kv1.1 channel (K-Kv1.1); experiment: Competitive displacement of A-HgTx from complexes with K-Kv1.1 on Neuro2a cells; type: binding; details: for Kd: displacement of A-HgTx (2 nM) from K-Kv1.1, Neuro2a cells (Figure S7), read-out: Kap, Kv1.1
Text: Content of secondary structures in the studied peptides
Table S1. Content of secondary structures in the studied peptides (%) according to the CD analysis.
Peptide α-helix β-sheet Turns Random coil
Studies of affinity of Ce1 and Ce4 peptides to Kv1.1 and Kv1.3 channels Affinity of MgTx to Kv1.3 channel and peptides Ce1 and Ce4 to Kv1.1 and Kv1.3 channels was studied using previously developed analytical systems based on fluorescent ligand A-HgTx and Kv1.1 (Kv1.3) channels expressed in the membrane of Neuro2a cells in the form of the conjugates with mKate2 fluorescent protein (K-Kv1.1 and K-Kv1.3). The approach based on the competitive displacement of A-HgTx (2 nM) from the complex with the channel by the increasing concentration of the studied peptide (Figure S6) and the previously approved formalism (described in the Materials and Methods section) were used to evaluate Kap values for MgTx, Ce1 and Ce4 peptides. For the complexes of MgTx, Ce1 and Ce4 with Kv1.3 channel the Kap values are 1.4±0.7, 13±8 and 30±10 nM, respectively. For the complex of Ce1 with Kv1.1 channel, Kap is equal to 11±5 nM. Since Ce4 […]
(Figure S6b), Kap of the complex between Ce4 and Kv1.1 is estimated to be higher than 300 nM.
Figure S7. Competitive displacement of A-HgTx (2 nM) from the complexes with K-Kv1.1 (a, b) and K-Kv1.3 (c) by Ce1, Ce4 and MgTx peptides. (a,c) The dependences of the Rav/Rav0 parameter (see the Materials and Methods section) on the concentration C of the added competitor are shown. Data are averaged over three independent experiments and presented as mean±SEM. (b) Histogram showing the effect of 1 µM Ce4 on the binding of A-HgTx (2 nM) to K-Kv1.1.
Molecular modeling of Kv1.2 channel and its complexes with peptide blockers
(1 picture or pasted object on this page, not shown here)

[3] = target: Kv1.1 channel (K-Kv1.1); details: similar analytical system, read-out: Kap, Kv1.1; cited from earlier work
Text: Table 2 Sequences of Ce1, Ce4, HgTx1, and MgTx peptides and dissociation constants (Kap, nM) of their complexes with Kv1.2, Kv1.1, and Kv1.3 channels. | column: Kap, nM

[4] = test system: Kv1.2 channels; details: mammalian cells with depolarized membranes; read-out: 50% inhibition of the Rb+ flux through Kv1.2; cited from earlier work
Text: Kap of MgTx in our experiments is consistent with the last value.

| SMILES | block of current through K-Kv1.2 [1] | Kd [2] | displacement of A-HgTx (2 nM) from the complex with Kv1.1 channel ([2]; till the 1 µM concentration of peptide) | block of K-Kv1.2 channel currents ([1]; 2 nM HgTx1, whole-cell, room temperature, n = 10) | Kd [3] | IC50 [4] |
| --- | --- | --- | --- | --- | --- | --- |
| CC[C@H](C)[C@H](NC(=O)[C@@H](NC(=O)[C@@H](N)[C@@H](C)O)C(C)C)C(=O)N[C@@H](CC(N)=O)C(=O)N[C@H](C(=O)N[C@@H](CCCCN)C(=O)N[C@H]1CSSC[C@@H]2NC(=O)[C@H](CCCCN)NC(=O)[C@H](C)NC(=O)CNC(=O)[C@H](C)NC(=O)[C@H](Cc3c[nH]cn3)NC(=O)[C@@H]3CCCN3C(=O)CNC(=O)[C@H](Cc3ccc(O)cc3)NC(=O)[C@H](CC(C)C)NC(=O)[C@H](CC(=O)O)NC(=O)[C@H](CCCCN)NC(=O)[C@@H]3CSSC[C@@H](C(=O)N[C@@H](Cc4ccc(O)cc4)C(=O)N[C@@H](CC(N)=O)C(=O)N[C@@H](CC(N)=O)C(=O)O)NC(=O)[C@H](CCCCN)NC(=O)[C@H](CSSC[C@H](NC(=O)[C@H](CCC(N)=O)NC(=O)[C@H](CCCCN)NC(=O)[C@@H]4CCCN4C(=O)[C@H](CO)NC(=O)[C@H]([C@@H](C)O)NC1=O)C(=O)N[C@@H](CC(C)C)C(=O)N[C@@H](CCCCN)C(=O)N1CCC[C@H]1C(=O)N3)NC(=O)[C@H](CCCCN)NC(=O)CNC(=O)[C@H](CC(N)=O)NC(=O)[C@H](CCSC)NC2=O)C(C)C [Ce1] (H-TVINVKCTSPKQCLKPCKDLYGPHAGAKCMNGKCKCYNN-OH; disulfide 7-29, 13-34, 17-36 (inferred); N-terminus and C-terminus assumed) | block current through the channel | 11 ± 5 nM | – | – | – | – |
| CC[C@H](C)[C@H](NC(=O)[C@H](CCCCN)NC(=O)[C@H](Cc1ccc(O)cc1)NC(=O)[C@@H]1CSSC[C@@H]2NC(=O)[C@@H]3CCCN3C(=O)[C@H](CC(C)C)NC(=O)[C@H](CC(C)C)NC(=O)[C@@H]3CSSC[C@H](NC(=O)[C@H](CCCCN)NC(=O)CNC(=O)[C@H](CC(N)=O)NC(=O)[C@H](CCSC)NC(=O)[C@H](CSSC[C@H](NC(=O)[C@H](CCCCN)NC(=O)[C@@H](NC(=O)[C@H](CC(N)=O)NC(=O)[C@@H](NC(=O)[C@@H](NC(=O)[C@@H](N)[C@@H](C)O)[C@@H](C)CC)[C@@H](C)CC)C(C)C)C(=O)N[C@@H]([C@@H](C)O)C(=O)N[C@@H](CO)C(=O)N4CCC[C@H]4C(=O)N[C@@H](CCCCN)C(=O)N[C@@H](CCC(N)=O)C(=O)N3)NC(=O)[C@H](CCCCN)NC(=O)[C@H](C)NC(=O)CNC(=O)[C@H](C)NC(=O)[C@H](Cc3c[nH]cn3)NC(=O)[C@H]([C@@H](C)CC)NC(=O)CNC(=O)[C@H](Cc3ccc(O)cc3)NC(=O)[C@H]([C@@H](C)CC)NC(=O)[C@H](CCC(=O)O)NC(=O)[C@H](CCCCN)NC2=O)C(=O)N[C@@H](CCCCN)C(=O)N1)C(=O)O [Ce4] (H-TIINVKCTSPKQCLLPCKEIYGIHAGAKCMNGKCKCYKI-OH; disulfide 7-29, 13-34, 17-36 (inferred); N-terminus and C-terminus assumed) | block current through the channel | > 300 nM | does not displace A-HgTx | – | – | – |
| CC[C@H](C)[C@@H]1NC(=O)CNC(=O)[C@H](Cc2ccccc2)NC(=O)[C@H](CCC(N)=O)NC(=O)[C@H](C)NC(=O)[C@H](CCCCN)NC(=O)[C@@H]2CSSC[C@@H](C(=O)N[C@@H](Cc3ccc(O)cc3)C(=O)N3CCC[C@H]3C(=O)N[C@@H](Cc3c[nH]cn3)C(=O)O)NC(=O)[C@H](CCCCN)NC(=O)[C@@H]3CSSC[C@H](NC(=O)[C@H](CCC(N)=O)NC(=O)[C@H](CCCCN)NC(=O)[C@@H]4CCCN4C(=O)[C@H](CO)NC(=O)[C@H]([C@@H](C)O)NC(=O)[C@@H](NC(=O)[C@H](CCCCN)NC(=O)[C@@H](NC(=O)[C@H](CC(=O)O)NC(=O)[C@@H](NC(=O)[C@@H](NC(=O)[C@@H](N)[C@@H](C)O)C(C)C)[C@@H](C)CC)C(C)C)CSSC[C@H](NC(=O)[C@H](CCCCN)NC(=O)[C@H](C)NC(=O)CNC(=O)[C@H](C)NC(=O)[C@H](CCCNC(=N)N)NC1=O)C(=O)N[C@@H](CCSC)C(=O)N[C@@H](CC(N)=O)C(=O)NCC(=O)N[C@@H](CCCCN)C(=O)N3)C(=O)N[C@@H](CC(C)C)C(=O)N1CCC[C@H]1C(=O)N1CCC[C@H]1C(=O)N2 [HgTx1, hongotoxin 1] (H-TVIDVKCTSPKQCLPPCKAQFGIRAGAKCMNGKCKCYPH-OH; disulfide 7-29, 13-34, 17-36 (inferred); N-terminus and C-terminus assumed) | – | – | – | 84 ± 2% | 0.03 ± 0.02 nM | 0.14 nM |
